# Assay results as given in PubChem BioAssay AID270 (DTP/NCI, 2004).
# Where “and” joins values, the source holds several entries; their conditions need not be identical. Equal values may be shown once. Inconclusive results are not listed.
# Test system: BDF1 mice, s.c. Lewis lung carcinoma, T/C %
# Experiment: NCI In Vivo Anticancer Drug Screen. Data for tumor model Lewis Lung Carcinoma (subcutaneous) in B6D2F1 (BDF1) mice
# Summary of the method: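 Antitumor effect in vivo is scored from survival or tumor burden, reported as treated relative to vehicle controls.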
compound,measurement,setting,value
CCCCCCC(=O)O[C@H]1CC[C@H]2[C@@H]3CCC4=CC(=O)CC[C@]4(C)[C@H]3CC[C@]12C,T/C,"endpoint: mean tumor weight (est.), dose: 10.0 mg/kg/injection, schedule: Q01DX009 (ip), vehicle: water, higher = larger tumour",73 % of control
same,T/C,"endpoint: mean tumor weight (est.), dose: 20.0 mg/kg/injection, schedule: Q01DX009 (ip), vehicle: water, higher = larger tumour",111 % of control
same,T/C,"endpoint: mean tumor weight (est.), dose: 40.0 mg/kg/injection, schedule: Q01DX009 (ip), vehicle: water, higher = larger tumour",52 % of control
same,T/C,"endpoint: mean tumor weight (est.), dose: 80.0 mg/kg/injection, schedule: Q01DX009 (ip), vehicle: water, higher = larger tumour",93 % of control
same,T/C,"endpoint: median survival time, dose: 10.0 mg/kg/injection, schedule: Q01DX009 (ip), vehicle: water, higher = longer survival",115 % of control
same,T/C,"endpoint: median survival time, dose: 80.0 mg/kg/injection, schedule: Q01DX009 (ip), vehicle: water, higher = longer survival",101 % of control
COC1CCC(NC(=O)N(CCCl)N=O)CC1 (stereo not given),T/C,"endpoint: median survival time, dose: 16.0 mg/kg/injection, schedule: Q01DX001 (ip), vehicle: saline with Tween-80, higher = longer survival",121 % of control
same,T/C,"endpoint: median survival time, dose: 82.0 mg/kg/injection, schedule: Q01DX001 (ip), vehicle: saline with Tween-80, higher = longer survival",111 % of control
CN1CC(=O)N=C1N,T/C,"endpoint: mean tumor weight, dose: 31.3 mg/kg/injection, schedule: Q01DX011 (ip), vehicle: saline, higher = larger tumour",116 % of control
same,T/C,"endpoint: mean tumor weight, dose: 62.5 mg/kg/injection, schedule: Q01DX011 (ip), vehicle: saline, higher = larger tumour",150 % of control
same,T/C,"endpoint: mean tumor weight, dose: 125.0 mg/kg/injection, schedule: Q01DX011 (ip), vehicle: saline, higher = larger tumour",119 % of control
same,T/C,"endpoint: mean tumor weight, dose: 250.0 mg/kg/injection, schedule: Q01DX011 (ip), vehicle: saline, higher = larger tumour",105 % of control
Cc1c(C)c2c(c(C)c1O)CCC(C)(CCCC(C)CCCC(C)CCCC(C)C)O2 (stereo not given),T/C,"endpoint: median survival time, dose: 12.5 mg/kg/injection, schedule: Q02DX009 (ip), vehicle: olive oil, sesame oil, peanut oil, higher = longer survival",116 % of control
same,T/C,"endpoint: median survival time, dose: 25.0 mg/kg/injection, schedule: Q02DX009 (ip), vehicle: olive oil, sesame oil, peanut oil, higher = longer survival",100 % of control
same,T/C,"endpoint: median survival time, dose: 50.0 mg/kg/injection, schedule: Q02DX009 (ip), vehicle: olive oil, sesame oil, peanut oil, higher = longer survival",108 % of control
same,T/C,"endpoint: median survival time, dose: 100.0 mg/kg/injection, schedule: Q02DX009 (ip), vehicle: olive oil, sesame oil, peanut oil, higher = longer survival",104 % of control
same,T/C,"endpoint: median survival time, dose: 200.0 mg/kg/injection, schedule: Q02DX009 (ip), vehicle: olive oil, sesame oil, peanut oil, higher = longer survival",122 % of control
same,T/C,"endpoint: median survival time, dose: 400.0 mg/kg/injection, schedule: Q02DX009 (ip), vehicle: olive oil, sesame oil, peanut oil, higher = longer survival",118 % of control
NCC(O)c1ccc(O)c(O)c1 (stereo not given),T/C,"endpoint: mean tumor weight, dose: 2.5 mg/kg/injection, schedule: Q01DX011 (ip), vehicle: saline, higher = larger tumour",105 % of control
same,T/C,"endpoint: mean tumor weight, dose: 5.0 mg/kg/injection, schedule: Q01DX011 (ip), vehicle: saline, higher = larger tumour",161 % of control
same,T/C,"endpoint: mean tumor weight, dose: 10.0 mg/kg/injection, schedule: Q01DX011 (ip), vehicle: saline, higher = larger tumour",63 % of control
CCOC(=O)C(C)(C)Br,T/C,"endpoint: mean tumor weight, dose: 75.0 mg/kg/injection, schedule: Q01DX011 (ip), vehicle: other, higher = larger tumour",90 % of control
same,T/C,"endpoint: mean tumor weight, dose: 150.0 mg/kg/injection, schedule: Q01DX011 (ip), vehicle: other, higher = larger tumour",114 % of control
same,T/C,"endpoint: mean tumor weight, dose: 300.0 mg/kg/injection, schedule: Q01DX011 (ip), vehicle: other, higher = larger tumour",98 % of control
same,T/C,"endpoint: mean tumor weight, dose: 500.0 mg/kg/injection, schedule: Q01DX011 (ip), vehicle: other, higher = larger tumour",68 % of control
same,T/C,"endpoint: mean tumor weight, dose: 600.0 mg/kg/injection, schedule: Q01DX011 (ip), vehicle: other, higher = larger tumour",102 % of control
same,T/C,"endpoint: mean tumor weight, dose: 750.0 mg/kg/injection, schedule: Q01DX011 (ip), vehicle: other, higher = larger tumour",37 % of control
COc1cc([C@@H]2c3cc4c(cc3[C@H](O)[C@H]3COC(=O)[C@H]23)OCO4)cc(OC)c1OC,T/C,"endpoint: mean tumor weight, dose: 1.0 mg/kg/injection, schedule: Q01DX011 (ip), vehicle: carboxymethylcellulose (CMC), higher = larger tumour",84 % of control
same,T/C,"endpoint: mean tumor weight, dose: 2.0 mg/kg/injection, schedule: Q01DX011 (ip), vehicle: carboxymethylcellulose (CMC), higher = larger tumour",36 % of control
CS(=O)(=O)OCCCCOS(C)(=O)=O,T/C,"endpoint: mean tumor weight, dose: 12.5 mg/kg/injection, schedule: Q01DX011 (ip), vehicle: carboxymethylcellulose (CMC), higher = larger tumour",91 % of control and 104 % of control
same,T/C,"endpoint: median survival time, dose: 10.0 mg/kg/injection, schedule: Q01DX009 (ip), vehicle: Klucel (hydroxypropylcellulose) (HPC), higher = longer survival",94 % of control
same,T/C,"endpoint: median survival time, dose: 10.0 mg/kg/injection, schedule: Q01DX009 (ip), vehicle: saline with Tween-80, higher = longer survival",100 % of control
same,T/C,"endpoint: median survival time, dose: 20.0 mg/kg/injection, schedule: Q01DX009 (ip), vehicle: saline with Tween-80, higher = longer survival",93 % of control
same,T/C,"endpoint: median survival time, dose: 40.0 mg/kg/injection, schedule: Q01DX009 (ip), vehicle: Klucel (hydroxypropylcellulose) (HPC), higher = longer survival",92 % of control
same,T/C,"endpoint: median tumor weight (est.), dose: 10.0 mg/kg/injection, schedule: Q01DX009 (ip), vehicle: saline with Tween-80, higher = larger tumour",86 % of control
same,T/C,"endpoint: median tumor weight (est.), dose: 20.0 mg/kg/injection, schedule: Q01DX009 (ip), vehicle: saline with Tween-80, higher = larger tumour",80 % of control
same,T/C,"endpoint: median tumor weight (est.), dose: 40.0 mg/kg/injection, schedule: Q01DX009 (ip), vehicle: saline with Tween-80, higher = larger tumour",45 % of control
CCCCn1cnc2c(SC)ncnc21,T/C,"endpoint: median survival time, dose: 25.0 mg/kg/injection, schedule: Q01DX009 (ip), vehicle: saline with Tween-80, higher = longer survival",89 % of control
same,T/C,"endpoint: median survival time, dose: 50.0 mg/kg/injection, schedule: Q01DX009 (ip), vehicle: saline with Tween-80, higher = longer survival",94 % of control
same,T/C,"endpoint: median survival time, dose: 100.0 mg/kg/injection, schedule: Q01DX009 (ip), vehicle: saline with Tween-80, higher = longer survival",94 % of control
